# Results published in article PMC12384620, “Hit-to-Lead Studies of Pyrazinylpiperazines against Visceral Leishmaniasis: Pharmacokinetic Profile and In Vivo Efficacy of Potent Compounds against Leishmania infantum” (ACS Pharmacology & Translational Science, 2025).
# How the values were obtained:
# L. braziliensis Hsp83 = experiment: Hsp83 interaction by differential scanning fluorimetry; type: binding, Leishmania braziliensis
# Protocol: The assays were performed using an Applied Biosystems 7500 Fast RT-PCR system (Applied Biosystems, Foster City, CA, USA), in triplicate, with 96-well PCR plates (BioRad, Hercules, CA, USA) sealed with transparent capping strips (BioRad, Hercules, CA, USA). The plates were centrifugated for 2 min at 2000 rpm at 25 °C. The temperature was then ramped up from 25 to 85 °C, increasing 1 °C per minute, while fluorescence signals were monitored using SYPRO Orange dye, with an excitation wavelength of 492 nm and an emission wavelength of 610 nm.
# The DSF conditions used in this study have been previously described. , Briefly, each well contained 10 μM L. braziliensis Hsp90 or 5 μM L. braziliensis SOD, 1 μL of 5X SYPRO Orange, buffer A (50 mM PBS, 100 mM NaCl, pH 7.0 for L. braziliensis SOD or 50 mM Tris-HCl, 100 mM KCl, pH 8.0 for L. braziliensis Hsp90), and either 1 μL DMSO (5% v/v, negative control) or 1 – 6 (diluted in DMSO). […] Raw fluorescence data was collected using the Applied Biosystems 7500 Fast Software v2.0 and then exported to NAMI for Tm calculation via the first-derivative method. Differences in Tm values (ΔTm) were considered statistically significant when p < 0.05, as determined by the Kruskal–Wallis test followed by Dunn’s post-test for multiple comparisons, performed using GraphPad Prism 10.0 (GraphPad Software, San Diego, CA, USA, www.graphpad.com).
# [1] = tested on: L. infantum promastigotes; experiment: Flow cytometric cell cycle analysis (PI); type: cell-based, Leishmania infantum; details: 24 h, 0.5x, 1x, 2x IC50, PI
# Protocol: Then, the cells were collected, washed twice with 1 × PBS, and fixed in 70% ethanol at 4 °C for 24 h. The fixed parasites were then washed with 1 × PBS and the pellet was treated with 500 μL of RNase A (20 mg/mL) and incubated at 37 °C for 1 h. Subsequently, the parasites were stained with 10 μg/mL propidium iodide (PI) in the dark for 20 min. Cell cycle distribution, determining the percentage of cells in G0, G1, S, and G2/M phases, was analyzed using an Accuri C5 BD flow cytometer. The histograms presented are representative of results obtained from three independent experiments.
# L. infantum = experiment: Antileishmanial activity against L. infantum amastigotes in THP-1 macrophages; type: cell-based; details: Leishmania infantum; growth of L. infantum in THP-1 macrophages, 72 h
# Protocol: The in vitro anti-L. infantum activity (IC50) of each compound was evaluated on THP-1 cells (human leukemia monocytic cell line) infected with L. infantum promastigotes, and the in vitro cytotoxicity (CC50) was determined over the THP-1 cell line. The selectivity index (SI) was calculated as the ratio of the CC50 value determined in the cytotoxicity assay, divided by the IC50 value determined in the antileishmanial activity assay.
# Cells derived from the human monocytic strain THP-1 were cultured in complete Rowell Park Memorial Institute (RPMI)-1640 medium (supplemented with 10% fetal bovine serum, 100 U/mL penicillin, and 100 μg/mL streptomycin). Monocytes were differentiated into macrophages by the addition of 20 ng/mL phorbol myristate acetate (PMA). After 72 h, the macrophages (5 × 10^4), in black 96-well microtiter plates (Corning Incorporated, Corning, NY), were infected with Leishmania (Leishmania) infantum (MHOM/BR/1974/PP75) promastigotes transfected with gene tdTomato, on the second day of the stationary phase (20 parasites per macrophage) for 4 h. […] The IC50 values were determined by nonlinear regression using a variable slope model (log(concentration) vs growth inhibition) with the GraphPadPrism v8.2.0 (CA, USA) software. Controls with uninfected cells, untreated infected cells, and infected cells treated with amphotericin B at 0.25 μM (positive control) or DMSO 1% were used. Quadruplicates were run on the same plate, and the experiments were repeated at least once.
# BALB/c mice = experiment: Acute toxicity / maximum tolerated dose in uninfected mice; type: in vivo, mouse; details: intraperitoneal, accumulated dose 100 mg/kg, 24 h after last dose
# Protocol: The maximum tolerated dose (MTD) of 2 was determined in BALB/c mice. One male and one female specimen, uninfected, 6 weeks old (ideal weight: 20 g), were each administered intraperitoneally an emulsified sample prepared with 70% PBS1X, 20% PEG 400 (Polyethylene glycol 400, Sigma-Aldrich), 0.16% Tween 80 and 10% of 2, with an initial dose of 5 mg/kg of 2. After 2 h, an additional dose of 15 mg/kg was administered (resulting in an accumulated dose (AD) of 20 mg/kg). After another 2 h, a new dose of 30 mg/kg was administered (AD = 50 mg/kg). After a further 2 h, a final dose of 50 mg/kg (AD = 100 mg/kg) was administered.
# [2] = PAMPA blood-brain barrier permeability; type: in vitro ADME; details: PAMPA-BBB, pH 7.4; read-out: BBB Pe
# Protocol: One mg of each compound was solubilized in ethanol (1 mL) in a 5 mL flask, and an additional 500 μL ethanol and 3.5 mL PBS buffer (pH 7.4) were added to this solution. […] 180 μL of a PBS (pH 7.4)/ethanol (70:30) solution were then added to the wells of a 96-well receiver plate, and 5 μL of a porcine brain lipid solution (20 mg/mL in dodecane) to the wells of a 96-well donor plate. […] Afterward, the donor plate was removed, and the content of the receiver plate was transferred to a UV reading plate, which was read using a microplate reader (SpectraMax 5 – Molecular Devices). A reference sample for the internal correction of the microplate reader was prepared using 180 μL of the PBS (pH 7.4)/ethanol (70:30) solution (adapted from ref ). The optical density values obtained from the content of the receiver plate were compared with the ones obtained from readings performed with the initial solutions containing each compound, before their addition to the donor plate. […] The optical density values for the experimental controls were used to determine the equation of the linear regression (optical density vs P e ), which allowed the determination of the P e value of each compound from the optical density values obtained from the receiver plate, using an in-house Microsoft Excel spreadsheet.
# [3] = Hepatotoxicity in HepG2 cells (MTS); type: cell-based; details: human, read-out: CC50 against HepG2 cells
# Protocol: HepG2 cells were seeded at 2 × 10^4 cells/mL in DMEM, the plates were incubated for 24 h (5% CO2, 37 °C) and the compounds and doxorubicin (used as a positive control) were added in serial dilutions. After 72 h incubation, 15 μL of MTS reagent (CellTiter96) was added to each well, and the plates were incubated for 4 h then read using a microplate absorbance reader at 490 nm. Growth inhibition was expressed as a percentage of the absorbance of the negative control wells.
Structure (SMILES),effect on Tm of L. braziliensis Hsp83 (DSF) (L. braziliensis Hsp83; 100 μM),effect on cell cycle progression [1],IC50 (L. infantum) [µM],signs of acute toxicity (MTD determination) (BALB/c mice),Papp at 0.2 mg/mL [2] [×10⁻⁶ cm/s],CC50 at 72 h [3] [µM],interaction with L. braziliensis Hsp83 (DSF titration curves) (L. braziliensis Hsp83; 100 μM to 12.5 μM)
"O=C(c1ccc(O)cc1)N1CCN(c2cnccn2)CC1 [Compound 2, (4-Hydroxyphenyl)(4-(pyrazin-2-yl)piperazin-1-yl)methanone]",failed to exert statistically significant effects,G0/G1 phase cell cycle arrest,3.1 ± 1.3,no apparent signs of acute toxicity,0.55,> 64,–
"O=C(c1ccc(O)c(Cl)c1)N1CCN(c2cnccn2)CC1 [Compound 1, (3-Chloro-4-hydroxyphenyl)(4-(pyrazin-2-yl)piperazin-1-yl)methanone]",–,–,11.9 ± 2.2,–,0.52,–,neither of these compounds interacts
